Literature values as cited in patent US20230278953A1, “WATER SOLUBLE PRODRUGS OF PTBA FOR USE IN HDAC INHIBITION AND ENHANCING RENAL RECOVERY FOLLOWING ACUTE KIDNEY INJURY” (KLOTHO THERAPEUTICS, INC., priority 2020, published 2023).

Tested on: renal progenitor cells
Conditions: zebrafish embryos; proliferation-dependent manner; cited from earlier work

Compound: O=C(O)CCCSc1ccccc1 [PTBA, 4-(phenylthio)butanoic acid]
- effect on pool of renal progenitor cells: seemed to expand the pool of renal progenitor cells
